# ChEMBL document CHEMBL1136077, “Nicotinyl aspartyl ketones as inhibitors of caspase-3” (Bioorg Med Chem Lett, 2003)
# Target: T1, Caspase-3 (Homo sapiens, UniProt P42574)
# T1 sequence (P42574 whole entry): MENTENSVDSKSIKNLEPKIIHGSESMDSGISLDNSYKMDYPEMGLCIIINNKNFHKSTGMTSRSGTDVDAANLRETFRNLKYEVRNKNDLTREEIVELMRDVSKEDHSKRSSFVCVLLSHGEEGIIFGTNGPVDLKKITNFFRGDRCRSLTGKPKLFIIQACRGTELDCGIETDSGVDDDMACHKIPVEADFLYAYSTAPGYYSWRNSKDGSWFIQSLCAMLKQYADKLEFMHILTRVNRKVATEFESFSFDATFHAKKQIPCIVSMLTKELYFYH
# Experiment: Inhibitory concentration required against human Caspase-3
# Conditions: not given
row,SMILES,IC50 [µM]
1,O=C[C@H](CC(=O)O)NC(=O)c1ccncc1,> 200

# System: NT2
# Experiment: Inhibitory concentration required against NT2 cells
# Conditions: Homo sapiens
row,SMILES,IC50 [µM]
1,O=C(O)C[C@H](NC(=O)c1cncc(S(=O)(=O)NC2CC2)c1)C(=O)COC(=O)c1cccc2ccccc12,1.3
2,O=C(O)C[C@H](NC(=O)c1cncc(S(=O)(=O)NC2CC2)c1)C(=O)Oc1ccccc1,4.3
3,O=C(O)C[C@H](NC(=O)c1cncc(S(=O)(=O)NC2CC2)c1)C(=O)CSCc1ccc(F)cc1,8
4,CC(=O)N[C@@H](CC(=O)O)C(=O)N[C@@H](CCC(=O)O)C(=O)N[C@H](C(=O)N[C@H](C=O)CC(=O)O)C(C)C,> 100
5,O=C(O)C[C@H](NC(=O)c1cncc(S(=O)(=O)NCc2ccccc2)c1)C(=O)CSCc1ccc(F)cc1,59
6,CC(C)CN(CC(C)C)C(=O)c1cncc(C(=O)N[C@@H](CC(=O)O)C(=O)CSCc2ccc(F)cc2)c1,39
7,CN(C)S(=O)(=O)c1cncc(C(=O)N[C@@H](CC(=O)O)C(=O)CSCc2ccc(F)cc2)c1,21
8,CCCN(CCC)S(=O)(=O)c1cncc(C(=O)N[C@@H](CC(=O)O)C(=O)CSCc2ccc(F)cc2)c1,25
9,O=C(O)C[C@H](NC(=O)c1cncc(S(=O)(=O)NC2CC2)c1)C(=O)CNCc1c(F)cccc1F,53
10,CCN(C(=O)c1cncc(C(=O)N[C@@H](CC(=O)O)C(=O)CSCc2ccc(F)cc2)c1)C(C)C,16
11,CCN(CC)C(=O)c1cncc(C(=O)N[C@@H](CC(=O)O)C(=O)CSCc2ccc(F)cc2)c1,> 100
12,CCN(CC)S(=O)(=O)c1cncc(C(=O)N[C@@H](CC(=O)O)C(=O)CSCc2ccc(F)cc2)c1,12
13,CCCN(CCC)C(=O)c1cncc(C(=O)N[C@@H](CC(=O)O)C(=O)CSCc2ccc(F)cc2)c1,> 100
14,O=C[C@H](CC(=O)O)NC(=O)c1cncc(S(=O)(=O)NC2CC2)c1,57
15,CN(C1CC1)S(=O)(=O)c1cncc(C(=O)N[C@@H](CC(=O)O)C(=O)CSCc2ccc(F)cc2)c1,22
